Assay [1] has as its system myeloperoxidase (MPO). Description: Myeloperoxidase activity in liver homogenate, DEN/2-AAF hepatocarcinogenesis model. The class given is in vivo, albino Wistar rats. Particulars: mean±SEM, 8 rats. Here is the method: The experimental hepatocarcinogenesis model was developed according to a protocol by […] et al. that was adapted for our purposes. To initiate and promote hepatocarcinogenesis, diethylnitrosamine (DEN) and 2-acetylaminofluorene (2-AAF) were used, respectively. For hepatocarcinogenesis initiation in this model, a single DEN dose (200 mg/kg b.wt.) dissolved in saline was injected intraperitoneally. After initiation, all rats underwent one period of 5-days fasting, as mitotic proliferative stimuli. To promote hepatocarcinogenesis, 2-acetylaminofluorene (2-AAF) was introduced in the form of six daily intragastric doses (30 mg/kg in 1% Tween 80); two weeks after DEN treatment. […] at doses of 25 mg/kg by weight (b.wt.) and 50 mg/kg b.wt, was administrated orally to rats. These doses have been reported to suppress chemically-induced oxidative damage in rats. A total of 40 adult male albino Wistar rats were randomly divided into […] (n=8) and were subjected to different treatments. Group 1 (control) was orally administered distilled water (5 ml/kg b.wt.) throughout the experimental duration and were injected with a single dose of saline. Group 2 ([…] only) was subjected to a safranal dose (50 mg/kg b.wt.) through oral administration for the duration of the experimental period. Hepatocarcinogenesis was induced by DEN and promoted by 2-AAF, as reported previously, in group 3 (HCC). […] Glutathione (GSH) content was determined by analyzing liver homogenates, according to the method of Van Dooran et al. The assay depends on measuring yellow 5-thiol-2-nitrobenzoate absorbance at 412 nm. Glutathione-S-transferase (GST) activity was determined using the method of Habig et al. GST catalyzes the conjugation of GSH thiol group with 1-Chloro-2,4-dinitrobenzene (CDNB), which can be measured by determining the increase in absorbance at 340 nm. […] CAT decomposes hydrogen peroxide (H2O2) to oxygen and water; therefore, the activity of CAT was evaluated according to by the exponential decomposition of H2O2 at 240 nm. […] UV-160-Shimadzu recording spectrophotometer was used to record absorbances. […]

In assay [2] the test system is NF-kB-p65. As to the kind of experiment: Immunohistochemical staining of liver sections, NF-kB-p65 positive cells. It counts as in vivo, albino Wistar rats. Particulars: low/high doses of safranal, DEN-exposed rats, vs HCC group. The protocol: The experimental hepatocarcinogenesis model was developed according to a protocol by Espandiaria et al. that was adapted for our purposes. To initiate and promote hepatocarcinogenesis, diethylnitrosamine (DEN) and 2-acetylaminofluorene (2-AAF) were used, respectively. For hepatocarcinogenesis initiation in this model, a single DEN dose (200 mg/kg b.wt.) dissolved in saline was injected intraperitoneally. After initiation, all rats underwent one period of 5-days fasting, as mitotic proliferative stimuli. To promote hepatocarcinogenesis, 2-acetylaminofluorene (2-AAF) was introduced in the form of six daily intragastric doses (30 mg/kg in 1% Tween 80); two weeks after DEN treatment.
Safranal at doses of 25 mg/kg by weight (b.wt.) and 50 mg/kg b.wt, was administrated orally to rats. These doses have been reported to suppress chemically-induced oxidative damage in rats. A total of 40 adult male albino Wistar rats were randomly divided into […] (n=8) and were subjected to different treatments. […]
For immunohistochemical staining, mounted sections were immersed in sodium citrate buffer (0.1 M, pH 6) and placed in a water bath for 15 minutes to unmask antigen epitopes. […] Ten fields were randomly selected to quantify positive cells, in individual samples (400×). […]

Assay [3] deals with HeLa cells. The note with it: reported in the background; cited from earlier work.

On to `CC1=C(C=O)C(C)(C)CC=C1` [Safranal, 2,6,6-trimethylcyclohexa-1,3-diene-1-carbaldehyde], for which the MPO is 31.54 ± 2.4 milliunit/mg protein in assay [1] (HCC (DEN/2-AAF) rats + safranal high dose 50 mg/kg b.wt. oral, 12 weeks); 27.47 ± 1.77 milliunit/mg protein in assay [1] (HCC (DEN/2-AAF) rats + safranal low dose 25 mg/kg b.wt. oral, 12 weeks); 32.61 ± 1.61 milliunit/mg protein in assay [1] (safranal alone 50 mg/kg b.wt. oral, no DEN (group 2)). The “number of NF-kB-p65-positive cells” value in assay [2] is reported as “significantly reduced the number of NF-kB-p65-positive cells”. Besides, the “growth of HeLa cells” value in assay [3] is “inhibit the growth of HeLa cells”.

The values above are taken from patent US10912741B2, “Prevention of liver cancer with safranal-based formulations” (United Arab Emirates University, priority 2019, dated 2021).
